According to patent US11179469B2, “Transdermal absorption preparation” (Nitto Denko Corporation, priority 2017, dated 2021):

Assay: Octanol/water partition coefficient of the drug (log P1)
Assay type: physicochemical
Settings: base 10 logarithm
Description: The octanol/water partition coefficient is the ratio of the distribution of a certain chemical substance respectively to n-octanol and water (ratio of the concentration in n-octanol phase and aqueous phase). It is used as an index showing hydrophobicity and transferability of the chemical substance, and can be measured by the flask shaking method prescribed in the Economic Development Cooperation Organization (OECD) Test Guideline 107 and the like or calculated using the calculation software (“Cache Workspace (registered trade mark)” manufactured by Fujitsu Limited) etc. and inputting the structural formula of the compound. The octanol/water partition coefficient of the polymer is calculated using the molecule structural formula in a monomer unit.

Structure (SMILES): CC(C)(C)NCC(O)c1ccccc1Cl (centres unmarked) [Tulobuterol]
- logP1 (octanol/water partition coefficient of the drug): 2.55

Structure (SMILES): CC(C)C[C@H](CN)CC(=O)O [pregabalin]
- logP1 (octanol/water partition coefficient of the drug): 0.89
